Assay results reported in patent US6008222A (Bristol-Myers Squibb Company, priority 1997, dated 1999).
Entries after “also recorded” stand apart in the source; their conditions may differ.

Columns and labels:
[1] = tested on: diazepam-withdrawn animals; conditions: cited from earlier work
[2] = human, in vivo
[3] = human, in vivo; cited from earlier work
[4] = tested on: anxiolytic activity; conditions: cited from earlier work
[5] = tested on: diazepam-naive subjects; conditions: previous studies; cited from earlier work
[6] = in vivo, cited from earlier work
[7] = tested on: rat; conditions: systemic administration of 1-PP; cited from earlier work
[8] = J. Clin. Psychiatry, 57:7, July 1996; cited from earlier work
[9] = tested on: cytochrome P4503A3/4; conditions: J. Clin. Psychiatry, 57:7, July 1996; cited from earlier work
[10] = six subject pharmacokinetic study: buspirone and 1-PP blood levels following seven days of drug administration
[11] = tested on: cytochrome P4503A4; conditions: cited from earlier work
[12] = tested on: antidepressant effect; conditions: co-administered with an antidepressant drug regimen such as fluoxetine; cited from earlier work
[13] = clinical; conditions: human, in vivo, po
[14] = tested on: anxiety disorders and depression; conditions: U.S. Pat. No. 3,717,634; cited from earlier work
[15] = tested on: patients undergoing diazepam-withdrawal; conditions: human, in vivo; cited from earlier work

c1cnc(N2CCNCC2)nc1 [1-PP, 1-(2-pyrimidinyl)-piperazine]
effect in social interaction paradigms [1]: anxiogenic effect | intra- and inter-patient variations in blood levels [2]: reduced | association of high 1-PP levels with undesired or adverse events [3]: associated with the occurrence of undesired or adverse events | anxiolytic activity ([4]; certain tests / earlier animal testing): (weak) antianxiety activity; also recorded: weak anxiolytic activity | antagonism of the anxiolytic and/or antidepressant action of buspirone ([4]; other tests): antagonizes the desired anxiolytic and/or antidepressant action of buspirone | effect on social interaction [5]: not shown any effect | plasma levels of 1-PP [6]: much higher plasma levels | antagonism of intracerebral buspirone activity [7]: could be blocked

CCc1nn(CCCN2CCN(c3cccc(Cl)c3)CC2)c(=O)n1CCOc1ccccc1 [Nefazodone]
effect on concentration and toxicity of alprazolam and triazolam [8]: increasing the concentration and toxicity of alprazolam and triazolam | inhibition of cytochrome P4503A3/4 [9]: inhibition | inhibition of buspirone metabolism ([10]; in the presence of nefazodone, preliminary study data): marked inhibition of buspirone metabolism | inhibition of cytochrome P4503A4 [11]: an inhibitor

O=C1CC2(CCCC2)CC(=O)N1CCCCN1CCN(c2ncccn2)CC1 [Buspirone, 8-[4-[4-(2-pyrimidinyl)1-piperazinyl]butyl]-8-azaspiro(4,5)-decane,7,9-dione]
intra- and inter-patient variations in blood levels [2]: reduced | augmentation of an antidepressant effect [12]: effective | AUC(0-t) at […] [13]: 29.4 ± 9.9 ng·h/mL | Cmax at […] [13]: 8 ± 3.3 ng/mL | Tmax at […] [13]: 1 h | half-life at […] ([13]; T1/2 of buspirone): 2.6 ± 1.8 h | absorption ([6]; po): rapidly absorbed | disappearance of buspirone ([10]; concurrent administration of nefazodone): delayed | effectiveness for the treatment of anxiety disorders and depression [14]: effective | treatment of patients undergoing diazepam-withdrawal [15]: failed to adequately treat
